Source: patent US20110182850A1, “ORGANIC COMPOUNDS AND THEIR USES” (priority 2009, published 2011)

molecular target: T1, HCV NS3-4A serine protease (full-length NS3-4A protein, genotype 1a, strain HCV-1) (Hepatitis C virus genotype 1a, UniProt P26664); assay: HCV NS3-4A protease assay; assay type: biochemical; conditions: Protease IC50
T1 construct: using the full-length NS3-4A protein (genotype 1a, strain HCV-1)
Procedure: The inhibitory activity of certain compounds of Table A against HCV NS3-4A serine protease is determined in a homogenous assay using the full-length NS3-4A protein (genotype 1a, strain HCV-1) and a commercially available internally-quenched fluorogenic peptide substrate as described by Taliani, M., et al. 1996 Anal. Biochem. 240:60-67, which is incorporated by reference in its entirety.

T1 sequence (P26664 1658-1711): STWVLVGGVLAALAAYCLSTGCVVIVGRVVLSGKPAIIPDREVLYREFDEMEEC
T1 sequence (P26664 1027-1657): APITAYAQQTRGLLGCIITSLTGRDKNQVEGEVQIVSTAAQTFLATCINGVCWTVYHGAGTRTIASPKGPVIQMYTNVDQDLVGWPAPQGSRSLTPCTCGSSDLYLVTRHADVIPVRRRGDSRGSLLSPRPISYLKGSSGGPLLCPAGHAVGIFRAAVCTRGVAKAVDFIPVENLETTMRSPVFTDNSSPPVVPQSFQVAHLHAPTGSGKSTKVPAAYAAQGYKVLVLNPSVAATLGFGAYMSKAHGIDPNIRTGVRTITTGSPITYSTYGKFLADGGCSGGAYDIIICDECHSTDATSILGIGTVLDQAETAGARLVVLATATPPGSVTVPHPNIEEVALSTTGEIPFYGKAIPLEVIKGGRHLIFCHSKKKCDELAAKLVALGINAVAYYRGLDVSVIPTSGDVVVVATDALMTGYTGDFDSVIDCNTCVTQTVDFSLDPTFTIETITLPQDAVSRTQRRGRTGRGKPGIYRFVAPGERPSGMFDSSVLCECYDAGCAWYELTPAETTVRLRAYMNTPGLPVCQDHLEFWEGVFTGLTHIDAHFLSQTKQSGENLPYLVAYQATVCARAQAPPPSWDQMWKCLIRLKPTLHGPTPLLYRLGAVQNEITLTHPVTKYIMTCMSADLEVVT

SMILES	IC50
C=C[C@@H]1C[C@]1(NC(=O)[C@@H]1C[C@@]2(CN1C(=O)[C@@H](NC(=O)[C@@H](NC(=O)[C@@H]1CCCCN1CCF)C(C)(C)C)C(C)(C)C)C(C)(C)C21CCC1)C(=O)NS(=O)(=O)c1cccc2cc[nH]c12 [Compound 14, (5R,8S)-7-[(2S)-2-{[(2S)-2-({[(2S)-1-(2-fluoroethyl)piperidin-2-yl]carbonyl}amino)-3,3-dimethylbutanoyl]amino}-3,3-dimethylbutanoyl]-N-{(1R,2S)-1-[(1H-indol-7-ylsulfonyl)carbamoyl]-2-vinylcyclopropyl}-10,10-dimethyl-7-azadispiro[3.0.4.1]decane-8-carboxamide]	6.5 nM
CC(C)N1CCCC[C@H]1C(=O)N[C@H](C(=O)N[C@H](C(=O)N1C[C@]2(CC1C(=O)NC1(C(=O)NS(=O)(=O)C3CC3)CC1(C)C)C(C)(C)C21CCC1)C(C)(C)C)C(C)(C)C (stereo partly drawn) [Compound 15, (5R)-N-{1-[(cyclopropylsulfonyl)carba-moyl]-2,2-dimethylcyclopropyl}-7-[(2S)-2-{[(2S)-2-({[(2S)-1-isopropylpiperidin-2-yl]carbonyl}amino)-3,3-dimethylbutanoyl]amino}-3,3-dimethylbutanoyl]-10,10-dimethyl-7-azadispiro[3.0.4.1]decane-8-carboxamide]	3700 nM
C=C[C@@H]1C[C@]1(NC(=O)[C@@H]1C[C@@]2(CN1C(=O)[C@@H](NC(=O)[C@@H](NC(=O)[C@@H]1CCCCN1C(C)C)C(C)(C)C)C(C)(C)C)C(C)(C)C21CCC1)C(=O)NS(=O)(=O)c1ccccc1 [Compound 17, (5R,8S)-7-[(2S)-2-{[(2S)-2-({[(2S)-1-isopropylpiperidin-2-yl]carbonyl}amino)-3,3-dimethylbutanoyl]amino}-3,3-dimethylbutanoyl]-10,10-dimethyl-N-{(1R,2S)-1-[(phenylsulfonyl)carbamoyl]-2-vinylcyclopropyl}-7-azadispiro[3.0.4.1]decane-8-carboxamide]	4.5 nM
C=C[C@@H]1C[C@]1(NC(=O)[C@@H]1C[C@@]2(CN1C(=O)[C@@H](NC(=O)[C@@H](NC(=O)[C@@H]1CCCCN1C(C)C)C(C)(C)C)C(C)(C)C)C(C)(C)C21CCC1)C(=O)NS(=O)(=O)Cc1ccccc1 [Compound 22, (5R,8S)-N-{(1R,2S)-1-[(benzylsulfonyl)carbamoyl]-2-vinylcyclopropyl}-7-[(2S)-2-{[(2S)-2-({[(2S)-1-isopropylpiperidin-2-yl]carbonyl}amino)-3,3-dimethylbutanoyl]amino}-3,3-dimethylbutanoyl]-10,10-dimethyl-7-azadispiro[3.0.4.1]decane-8-carboxamide]	14 nM
CC(C)N1CCCC[C@H]1C(=O)N[C@H](C(=O)N[C@H](C(=O)N1C[C@]2(C[C@H]1C(=O)NC1(C(=O)NS(=O)(=O)C3CC3)CC=CC1)C(C)(C)C21CCC1)C(C)(C)C)C(C)(C)C [Compound 23, (5R,8S)-N-{1-[(cyclopropylsulfonyl)carba-moyl]cyclopent-3-en-1-yl}-7-[(2S)-2-{[(2S)-2-({[(2S)-1-isopropylpiperidin-2-yl]carbonyl}amino)-3,3-dimethylbutanoyl]amino}-3,3-dimethylbutanoyl]-10,10-dimethyl-7-azadispiro[3.0.4.1]decane-8-carboxamide]	1250 nM
CC(C)(C)[C@H](NC(=O)[C@@H]1CCCCN1CCF)C(=O)N[C@H](C(=O)N1C[C@]2(C[C@H]1C(=O)NC1(C(=O)NS(=O)(=O)C3CC3)CC=CC1)C(C)(C)C21CCC1)C(C)(C)C [Compound 24, (5R,8S)-N-{1-[(cyclopropylsulfonyl)carba-moyl]cyclopent-3-en-1-yl}-7-[(2S)-2-{[(2S)-2-({[(2S)-1-(2-fluoroethyl)piperidin-2-yl]carbonyl}amino)-3,3-dimethylbutanoyl]amino}-3,3-dimethylbutanoyl]-10,10-dimethyl-7-azadispiro[3.0.4.1]decane-8-carboxamide]	5250 nM
CC(C)N1CCCCC1C(=O)N[C@H](C(=O)N[C@H](C(=O)N1C[C@]2(C[C@H]1C(=O)N[C@]1(C(=O)NS(=O)(=O)C3CC3)CC=CCC1)C(C)(C)C21CCC1)C(C)(C)C)C1CCCCC1 (stereo partly drawn) [Compound 25, (5R,8S)-7-[(2S)-2-{[(2S)-2-cyclohexyl-2-{[(1-isopropylpiperidin-2-yl)carbonyl]amino}acetyl]amino}-3,3-dimethylbutanoyl]-N-{(1S)-1-[(cyclopropylsulfonyl)carba-moyl]cyclohex-3-en-1-yl}-10,10-dimethyl-7-azadispiro[3.0.4.1]decane-8-carboxamide]	550 nM
CC(C)N1CCCCC1C(=O)N[C@H](C(=O)N[C@H](C(=O)N1C[C@]2(C[C@H]1C(=O)N[C@]1(C(=O)NS(=O)(=O)C3CC3)CC=CCC1)C(C)(C)C21CCC1)C(C)(C)C)C(C)(C)C (stereo partly drawn) [Compound 26, (5R,8S)-N-{(1S)-1-[(cyclopropylsulfonyl)carba-moyl]cyclohex-3-en-1-yl}-7-[(2S)-2-{[(2S)-2-{[(1-isopropylpiperidin-2-yl)carbonyl]amino}-3,3-dimethylbutanoyl]amino}-3,3-dimethylbutanoyl]-10,10-dimethyl-7-azadispiro[3.0.4.1]decane-8-carboxamide]	2950 nM
CC(C)(C)[C@H](NC(=O)[C@@H](NC(=O)C1CCCCN1CCF)C1CCCCC1)C(=O)N1C[C@]2(C[C@H]1C(=O)N[C@]1(C(=O)NS(=O)(=O)C3CC3)CC=CCC1)C(C)(C)C21CCC1 (stereo partly drawn) [Compound 27, (5R,8S)-7-[(2S)-2-{[(2S)-2-cyclohexyl-2-({[1-(2-fluoroethyl)piperidin-2-yl]carbonyl}amino)acetyl]amino}-3,3-dimethylbutanoyl]-N-{(1S)-1-[(cyclopropylsulfonyl)carba-moyl]cyclohex-3-en-1-yl}-10,10-dimethyl-7-azadispiro[3.0.4.1]decane-8-carboxamide]	2850 nM
CC(C)(C)[C@H](NC(=O)C1CCCCN1CCF)C(=O)N[C@H](C(=O)N1C[C@]2(C[C@H]1C(=O)N[C@]1(C(=O)NS(=O)(=O)C3CC3)CC=CCC1)C(C)(C)C21CCC1)C(C)(C)C (stereo partly drawn) [Compound 28, (5R,8S)-N-{(1S)-1-[(cyclopropylsulfonyl)carba-moyl]cyclohex-3-en-1-yl}-7-[(2S)-2-{[(2S)-2-({[1-(2-fluoroethyl)piperidin-2-yl]carbonyl}amino)-3,3-dimethylbutanoyl]amino}-3,3-dimethylbutanoyl]-10,10-dimethyl-7-azadispiro[3.0.4.1]decane-8-carboxamide]	3150 nM
C=C[C@@H]1C[C@]1(NC(=O)[C@@H]1C[C@@]2(CN1C(=O)[C@@H](NC(=O)[C@@H](NC(=O)[C@@H]1CCCCN1CCF)C1CCCCC1)C(C)(C)C)C(C)(C)C21CCC1)C(=O)NS(=O)(=O)C1CC1 [Compound 29, (5R,8S)-7-[(2S)-2-{[(2S)-2-cyclohexyl-2-({[(2S)-1-(2-fluoroethyl)piperidin-2-yl]carbonyl}amino)acetyl]amino}-3,3-dimethylbutanoyl]-N-{(1R,2S)-1-[(cyclopropylsulfonyl)carba-moyl]-2-vinylcyclopropyl}-10,10-dimethyl-7-azadispiro[3.0.4.1]decane-8-carboxamide]	1 nM

same assay, conditions: read-out: Protease IC50

SMILES	IC50
C=C[C@@H]1C[C@]1(NC(=O)[C@@H]1C[C@@]2(CN1C(=O)[C@@H](NC(=O)N[C@H](CN1CCN(C)CC1)C(C)(C)C)C(C)(C)C)C(C)(C)C21CCC1)C(=O)NS(=O)(=O)C1CC1 [Compound 16, (5R,8S)-N-{(1R,2S)-1-[(cyclopropylsulfonyl)carba-moyl]-2-vinylcyclopropyl}-7-{(2S)-2-[({(1S)-2,2-dimethyl-1-[(4-methylpiperazin-1-yl)methyl]propyl}carbamoyl)amino]-3,3-dimethylbutanoyl}-10,10-dimethyl-7-azadispiro[3.0.4.1]decane-8-carboxamide]	10 nM
C=C[C@@H]1C[C@]1(NC(=O)[C@@H]1C[C@@]2(CN1C(=O)[C@@H](NC(=O)N[C@H](CN(C)S(=O)(=O)c1ccccn1)C(C)(C)C)C(C)(C)C)C(C)(C)C21CCC1)C(=O)NS(=O)(=O)C1CC1 [Compound 18, (5R,8S)-N-{(1R,2S)-1-[(cyclopropylsulfonyl)carba-moyl]-2-vinylcyclopropyl}-7-[(2S)-2-({[(1S)-2,2-dimethyl-1-{[methyl(pyridin-2-ylsulfonyl)amino]methyl}prop-yl]carbamoyl}amino)-3,3-dimethylbutanoyl]-10,10-dimethyl-7-azadispiro[3.0.4.1]decane-8-carboxamide]	3 nM
C=C[C@@H]1C[C@]1(NC(=O)[C@@H]1C[C@@]2(CN1C(=O)[C@@H](NC(=O)C1CCCN(C(C)=O)C1)C(C)(C)C)C(C)(C)C21CCC1)C(=O)NS(=O)(=O)C1CC1 (stereo partly drawn) [Compound 19, (5R,8S)-7-[(2S)-2-{[(1-acetylpiperidin-3-yl)carbonyl]amino}-3,3-dimethylbutanoyl]-N-{(1R,2S)-1-[(cyclopropylsulfonyl)carba-moyl]-2-vinylcyclopropyl}-10,10-dimethyl-7-azadispiro[3.0.4.1]decane-8-carboxamide]	350 nM
C=C[C@@H]1C[C@]1(NC(=O)[C@@H]1C[C@@]2(CN1C(=O)[C@@H](NC(=O)N[C@H](CN(C)S(=O)(=O)N(C)C)C(C)(C)C)C(C)(C)C)C(C)(C)C21CCC1)C(=O)NS(=O)(=O)C1CC1 [Compound 20, (5R,8S)-N-{(1R,2S)-1-[(cyclopropylsulfonyl)carba-moyl]-2-vinylcyclopropyl}-7-[(2S)-2-({[(1S)-1-({[(dimethylamino)sulfonyl] (methyl)amino}methyl)-2,2-dimethylpropyl]carbamoyl}amino)-3,3-dimethylbutanoyl]-10,10-dimethyl-7-azadispiro[3.0.4.1]decane-8-carboxamide]	2 nM
